Source: US20050049202A1, “Benzoic acid derivatives and uses thereof” (priority 2000, published 2005)

Experiments:
[1] = test system: THP-1 clone No. 63 (containing PGL2_Neo30); experiment: Luciferase reporter gene assay for compounds which destabilize mRNA, clone No. 63; type: cell-based; conditions: clone 63
Text: (§1) One method for identifying a the ability of a compound of the present invention to induce mRNA degradation, comprises i) contacting the compound with a DNA expression system which in the absence of the compound is capable of expressing a protein having a detectable signal, wherein the mRNA which codes for the protein and which is transcribed from the expression system comprises at least one copy of a mRNA instability sequence; ii) measuring the detectable signal in the presence of the test compound and comparing the result obtained with a control. A related method can be used to compare compounds which induce mRNA degradation. This method comprises separately contacting the compounds with a DNA expression system which in the absence of the compounds is capable of expressing a protein having a detectable signal, wherein the mRNA which codes for the protein and which is transcribed from the expression system comprises at least one copy of a mRNA instability sequence, measuring the detectable signal in the presence of each test compound and comparing the signals obtained.
(§2) The THP-1 cell lines, clone No. 63 (containing PGL2_Neo30) and clone No. 53 (containing pGL2-Control) are grown, differentiated and stimulated with IFN-γ and LPS identical to normal THP-1 cells (for details see WO 00/39314). Compound is added 16 hrs after the addition of LPS and cell extracts are then taken 8 hrs later or as indicated. Luciferase activity was inhibited by 1 μM benzoic acid derivative on average by 40%, whereas up to 5 μM of benzoic acid derivative had no effects on the control clone No. 53.

[2] = test system: THP-1 clone No. 53 (containing pGL2-Control); experiment: Luciferase reporter gene assay, control clone No. 53; type: cell-based; conditions: control clone 53
Text: as §1, §2

**Q.** Which results are given for COc1cccc(C)c1C(=O)OC[C@@H]1C=CC(=O)O1?
**A.** Luciferase reporter gene assay (% control) ([1]; 0.5 μM): 85 % control; Luciferase reporter gene assay (% control) ([1]; 1 μM): 79 % control; Luciferase reporter gene assay (% control) ([1]; 5 μM): 29 % control; Luciferase reporter gene assay (% control) ([2]; 0.5 μM): 89 % control; Luciferase reporter gene assay (% control) ([2]; 1 μM): 93 % control; Luciferase reporter gene assay (% control) ([2]; 5 μM): 99 % control
